{"source": "patent US7005138B2", "about": "“Method of systematically delivering SSRIs” (Duramed Pharmaceuticals, Inc., priority 2001, dated 2006)", "key": {"[1]": {"assay": "Rabbit study: plasma levels of fluoxetine and norfluoxetine after single oral vs. intravaginal dose", "description": "(§1) A study was designed to compare the pharmacokinetic profiles of oral vs. intravaginal administration of fluoxetine in white albino female New Zealand rabbits. The study compared the blood levels of fluoxetine and/or its metabolites in the rabbits after either a single oral dose or a single intravaginal dose of fluoxetine hydrochloride. Both oral (tablet) and intravaginal (transvaginal insert) administration delivered the standard human daily dose of 20 mg fluoxetine hydrochloride to each rabbit. The oral route was used to compare the bioavailability of fluoxetine by the two routes of administration.\n(§2) Three rabbits received the fluoxetine tablets orally, while three rabbits received fluoxetine inserts intravaginally. The fluoxetine tablets were administered orally using an animal pilling device. The fluoxetine inserts were administered by insertion into the vaginas of the rabbits. The inserts remained in place for 2–4 hours, after which they were removed. Removal was accomplished by using an appropriate instrument to grasp the extension on the back of the insert. If an insert was expelled from an animal before removal, it was noted but not replaced. Both tablets and intravaginal inserts were administered once on Day 0.\nBlood samples were obtained for the determination of plasma concentrations of fluoxetine. Starting on Day 0, blood samples were obtained for toxicokinetic determinations from all animals pretest and at 1, 3, 8, 12, 16, 24, 36, 48, 72, 96, 120, 144, 168, 240, 360, 480, 672 and 840 hours post-dose. Pre-dose samples were collected one week prior to dosing. Approximately 1.5 mL of whole blood was obtained from the medial auricular artery of the unanesthetized rabbits, unfasted, and were preserved using ethylenediamine tetraacetic acid (EDTA). […]\nThe EDTA preserved rabbit plasma samples were analyzed for fluoxetine and norfluoxetine using a solid phase extraction (SPE) technique. […]\nSamples were evaluated using a solid phase extraction technique using conditioned SPE cartridges, then analyzed via HPLC and mass spectroscopy. […]"}, "[2]": {"conditions": "oral administration; cited from earlier work"}, "[3]": {"conditions": "rabbit, cited from earlier work"}, "[4]": {"conditions": "rabbit", "description": "as §1, §2\nThe animals were observed twice daily for mortality and general condition. Animals in poor health were identified and further monitored. In addition, observations were made for any signs of toxic or pharmacologic effects (e.g., abnormalities in general, appearance, activity, behavior, respiration, etc.)."}}}
{"smiles": "NCCC(Oc1ccc(C(F)(F)F)cc1)c1ccccc1", "note": "(stereo not shown) [norfluoxetine]", "values": [{"measurement": "mean plasma levels of metabolite norfluoxetine, intravaginal delivery compared to oral delivery", "setting": "[1]; after fluoxetine single 20 mg dose", "result": "much lower"}, {"measurement": "mean norfluoxetine levels, persistence", "setting": "[1]; oral group", "result": "present throughout most of the study"}, {"measurement": "half life", "setting": "[2]", "result": "170 to 220", "unit": "h"}]}
{"smiles": "CNCCC(Oc1ccc(C(F)(F)F)cc1)c1ccccc1", "note": "(racemic) [fluoxetine, dl-N-methyl-γ-[4-(trifluoromethyl)phenoxy]benzenepropanamine]", "values": [{"measurement": "fluoxetine plasma levels after 72 hours", "setting": "[1]; in vivo, po", "result": "almost undetectable"}, {"measurement": "half life", "setting": "[2]", "result": "48 to 72", "unit": "h"}, {"measurement": "tolerability of repeated daily doses", "setting": "[3]; in vivo", "result": "fairly well tolerated"}, {"measurement": "mortality with repeated daily doses", "setting": "[3]; up to 7.5 mg/kg/day", "result": "not associated with mortality"}, {"measurement": "decreased food consumption", "setting": "[4]; in vivo, po", "result": "One animal from each treatment group"}, {"measurement": "differences in clinical observations or body weights between administration methods", "setting": "[4]; in vivo, po", "result": "no differences"}, {"measurement": "mortality", "setting": "[4]; oral tablet and intravaginal insert groups, length of the study", "result": "No mortality"}]}
